Experimental findings from patent US20240197700A1, “Methods and Compositions for Treating Lysosomal Storage Disorders” (Sanford Health, priority 2021, published 2024) are described below.

For assay [1], the system named is NCL MEFs. Nature of the assay: LysoTracker signal in Batten disease mouse embryonic fibroblasts. Format: cell-based. As to the method: Wild type (WT) and mutant cells were treated with vehicle or LM11A-31 (100 nM, 1 μM, 10 μM). Cells were plated on day 0 and dosed with drug-containing media on DIV3 and DIV5. Concentrations of drug are shown on the x-axis above each image column; genotypes are shown to the left of each row. […] Increasing concentrations of LM11A-31 are shown along the x-axis.
Specific experimental details are included in figure legends. In general, after collection and preparation, MEFs and PNCs were dosed with vehicle or semaglutide (10 nM, 100 nM. or 1 μM) on DIV3 and DIV5. On DIV7, cells were exposed to the following dyes: Hoechst 33342 (1:1000 dilution), LysoTracker™ Red DND-99 (1:10,000 dilution), fixed. and imaged. Mice were injected three times per week with vehicle or semaglutide (2.571 μg/mouse, 25.71 μg/mouse) beginning at wean. Body weight was measured at 4, 6, 8, 12, and 16 weeks of age. At 16 weeks of age, Cln3^Δex7/8 mice along with age matched wildtype control mice were CO2 euthanized and intracardially perfused with PBS. Brains were collected and placed on a 1 mm sagittal brain block. Brains were sliced at the midline and 3 mm right of the midline. The 3 mm sagittal piece was flash frozen with −50° C. isopentane and then sectioned on a cryostat at 16 μm and placed on slides. For ASM measurements, slides were counterstained with DAPI. The other hemisphere was fixed in 4% PFA and sectioned at 50 microns on a vibratome. Immunohistochemistry was performed on free-floating sections. For SubC, GFAP, and CD68 immunolabeling, primary antibodies included mitochondrial anti-ATP synthase subunit C (Abcam, ab181243; 1:1000), anti-GFAP (Dako, Z0334; 1:5000), anti-CD68 (AbD Serotec, MCA1957; 1:2000), and secondary antibodies included anti-rabbit biotinylated (Vector Labs, BA-1000 1:1000) and anti-rat (Vector Labs, BA-9400 1:1000). Coverslips were mounted on slides using antifade-mounting media and were stored in the dark before imaging. ASM slides were imaged on a Nikon ECLIPSE™ Ni-E upright microscope with a CoolSNAP™ DYNO camera. Images were extracted from S1BF of the somatosensory cortex, CA3 of the hippocampus, and the VPM/VPL of the thalamus, with multiple images taken of multiple tissues from each animal. IHC slides were imaged and analyzed using an Aperio Digital Pathology Slide Scanner (AT2) and associated software. Images were extracted from the S1BF of the somatosensory cortex, the CA3 of the hippocampus, and the VPM/VPL of the thalamus.
The glucagon-like peptide-1 (GLP-1) analogue, semaglutide is an FDA approved type II diabetes drug. It has been shown in previous reports that GLP1 receptor (GLP1R) agonists decrease the release of inflammatory cytokines by modulating microglial activity, but existing studies have not examined any activity on lysosome-related pathways. To test whether GLP1R agonism would reduce Batten disease pathology, we tested semaglutide in Batten disease cell models (FIGS. 18-19). Wild type (WT) and mutant mouse embryonic fibroblasts (MEFs) were treated with vehicle or semaglutide (10 nM, 100 nM, 1 μM; see FIG. 18). Cells were plated on in vitro day 0 and dosed with drug-containing media on DIV3 and DIV5. Analysis occurred on DIV7. Concentrations of drug are shown on the x-axis above each image column; genotypes are shown to the left of each row. […] Increasing concentrations of semaglutide are shown along the x-axis. […] Treatment with semaglutide (10 nM, 100 nM, 1 μM) had no impact on the accumulation of autofluorescent storage material (ASM) in Cln1^R151X, Cln2^R207X, Cln3^Δex7/8, Cln6^nclf, and Cln8^mnd MEFs (FIG. 18B).

Assay [2] concerns palmitoyl-protein thioesterase 1 (PPT1). Nature of the assay: PPT1 enzyme activity in MEF lysates. Format: cell-based, mouse. The settings on record: wild type, DIV7.
Description: Wild type (WT) and mutant cells were treated with vehicle or AF38469 (40 nM). Cells were plated on day 0 and dosed with drug-containing media on DIV3 and DIV5. Cells were lysed, and protein quantification and enzyme activity assay were performed on DIV7. Data was analyzed with GraphPad Prism™. Two-way ANOVA. Mean±S.E.M. Tukey's multiple comparisons test. *p<0.05, **p<0.01, ***p<0.001, ****p<0.0001.

Entries after “also recorded” stand apart in the source; their conditions may differ.

In the case of `Cc1cccc(NC(=O)c2ccc(C(F)(F)F)cc2C(=O)O)n1` [AF38469, 2-((6-methylpyridin-2-yl)carbamoyl)-5-(trifluoromethyl)benzoic acid], the LysoTracker signal result in assay [1] (40 nM, 400 nM, 4 μM, Cln1^R151X, Cln2^R207X, Cln6^nclf, Cln8^mnd, Cln11^−/− MEFs, DIV7, vs NCL vehicle) was “significantly reduced”; in assay [1] (40 nM, Cln3^Δex7/8 MEFs, DIV7) it was “significantly increased”; in assay [1] (400 nM, Cln3^Δex7/8 MEFs, DIV7), “significantly reduced”; in assay [1] (4 μM, Cln3^Δex7/8 MEFs, DIV7), “had no impact”. Besides, in assay [2] (AF38469 40 nM, Cln2^R207X, Cln3^Δex7/8, Cln6^nclf, Cln11^−/− MEFs), the PPT1 enzyme activity entry is “increased the overall levels of activity; also recorded: significantly increased”.

As to `CC[C@H](C)[C@H](N)C(=O)NCCN1CCOCC1` [LM11A-31, N-[2-(morpholin-4-yl)ethyl]-L-isoleucinamide], the LysoTracker signal result in assay [1] (LM11A-31 100 nM, NCL MEFs) is listed as “had no impact”; in assay [1] (LM11A-31 1 μM (mid dose), Cln1^R151X, Cln2^R207X MEFs), “significantly reduced”; in assay [1] (LM11A-31 1 μM, Cln3^Δex7/8, Cln6^nclf, Cln8^mnd MEFs), “decreasing trend”; in assay [1] (LM11A-31 10 μM, Cln1^R151X and Cln2^R207X MEFs) it was “decreasing trend”; in assay [1] (LM11A-31 varying doses, Cln3^Δex7/8 and Cln6^nclf MEFs), “decreasing trend”. Besides, the PPT1 enzyme activity result in assay [2] (LM11A-31 100 nM, Cln2^R207X and Cln3^Δex7/8 MEFs) is listed as “significantly increased”.

Take semaglutide: the LysoTracker signal result in assay [1] (semaglutide 10 nM and 100 nM, Cln8^mnd MEFs) was “had no impact”; in assay [1] (semaglutide 10 nM, 100 nM, 1 μM, Cln1^R151X and Cln6^nclf MEFs), “had no impact”; in assay [1] (semaglutide 10 nM, 100 nM, 1 μM, Cln2^R207X MEFs), “significantly reduced”; in assay [1] (semaglutide 10 nM, Cln3^Δex7/8 MEFs), “had no impact”; in assay [1] (semaglutide 100 nM, 1 μM, Cln3^Δex7/8 MEFs), “significantly reduced”; in assay [1] (semaglutide 1 μM, Cln8^mnd MEFs) it was “significantly reduced”. In assay [2] (semaglutide 100 nM, Cln2^R207X and Cln3^Δex7/8 MEFs), the PPT1 enzyme activity entry was “significantly increased”.
